Source: ChEMBL document CHEMBL4732170, “Discovery of Small-Molecule Antagonists of the PWWP Domain of NSD2” (J Med Chem, 2021)
Activity calls are given as the source filed them. No cut-off for these calls is given here.

How the values were obtained:
[1] = target: T1, Histone-lysine N-methyltransferase NSD3 (Homo sapiens) (UniProt Q9BZ95); assay: Binding affinity to NSD3 PWWP1 domain (unknown origin) assessed as aggregation temperature at 400 uM by heating at 25 to 85 degC by differential static light scattering method
T1 sequence (whole entry): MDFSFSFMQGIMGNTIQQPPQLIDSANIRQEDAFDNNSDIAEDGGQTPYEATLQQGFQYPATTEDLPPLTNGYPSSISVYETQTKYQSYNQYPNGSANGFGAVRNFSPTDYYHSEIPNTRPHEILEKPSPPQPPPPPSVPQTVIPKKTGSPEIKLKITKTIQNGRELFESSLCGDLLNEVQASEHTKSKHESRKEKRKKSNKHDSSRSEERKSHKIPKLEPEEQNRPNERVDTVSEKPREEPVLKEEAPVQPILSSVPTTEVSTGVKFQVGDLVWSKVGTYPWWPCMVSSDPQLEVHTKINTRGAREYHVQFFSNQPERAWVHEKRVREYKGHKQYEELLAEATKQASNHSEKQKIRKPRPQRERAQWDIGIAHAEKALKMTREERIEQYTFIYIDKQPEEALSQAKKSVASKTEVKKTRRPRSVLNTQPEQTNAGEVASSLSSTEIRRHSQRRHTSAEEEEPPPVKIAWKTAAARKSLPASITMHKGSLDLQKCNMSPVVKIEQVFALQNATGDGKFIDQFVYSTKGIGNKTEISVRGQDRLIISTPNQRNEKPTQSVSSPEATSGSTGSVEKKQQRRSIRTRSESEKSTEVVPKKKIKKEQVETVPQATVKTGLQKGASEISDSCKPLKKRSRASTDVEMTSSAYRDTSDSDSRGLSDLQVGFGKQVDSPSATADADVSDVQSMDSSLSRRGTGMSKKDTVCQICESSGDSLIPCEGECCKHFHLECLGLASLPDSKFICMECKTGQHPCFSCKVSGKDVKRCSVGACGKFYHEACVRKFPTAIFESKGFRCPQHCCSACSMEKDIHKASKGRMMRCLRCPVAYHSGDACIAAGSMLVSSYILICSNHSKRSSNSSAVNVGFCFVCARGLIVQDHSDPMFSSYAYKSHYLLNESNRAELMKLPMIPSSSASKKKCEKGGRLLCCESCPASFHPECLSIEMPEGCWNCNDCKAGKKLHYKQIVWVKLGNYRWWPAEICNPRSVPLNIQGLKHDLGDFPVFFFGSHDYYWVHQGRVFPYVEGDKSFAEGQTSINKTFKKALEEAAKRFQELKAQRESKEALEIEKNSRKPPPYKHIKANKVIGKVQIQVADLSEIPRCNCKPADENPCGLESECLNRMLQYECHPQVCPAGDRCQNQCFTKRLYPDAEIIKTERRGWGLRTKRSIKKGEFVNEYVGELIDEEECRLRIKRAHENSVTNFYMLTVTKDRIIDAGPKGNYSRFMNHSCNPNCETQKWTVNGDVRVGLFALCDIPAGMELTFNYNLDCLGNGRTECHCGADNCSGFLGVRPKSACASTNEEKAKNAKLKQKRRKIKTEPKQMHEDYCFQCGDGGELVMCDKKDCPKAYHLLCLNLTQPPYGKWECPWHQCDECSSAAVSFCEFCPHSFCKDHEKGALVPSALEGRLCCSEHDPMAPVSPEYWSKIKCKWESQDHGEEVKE

[2] = target: T2, Zinc finger CW-type PWWP domain protein 1 (Homo sapiens) (UniProt Q9H0M4); assay: Binding affinity to ZCWPW1 PWWP1 domain (unknown origin) assessed as aggregation temperature at 400 uM by heating at 25 to 85 degC by differential static light scattering method
T2 sequence (whole entry): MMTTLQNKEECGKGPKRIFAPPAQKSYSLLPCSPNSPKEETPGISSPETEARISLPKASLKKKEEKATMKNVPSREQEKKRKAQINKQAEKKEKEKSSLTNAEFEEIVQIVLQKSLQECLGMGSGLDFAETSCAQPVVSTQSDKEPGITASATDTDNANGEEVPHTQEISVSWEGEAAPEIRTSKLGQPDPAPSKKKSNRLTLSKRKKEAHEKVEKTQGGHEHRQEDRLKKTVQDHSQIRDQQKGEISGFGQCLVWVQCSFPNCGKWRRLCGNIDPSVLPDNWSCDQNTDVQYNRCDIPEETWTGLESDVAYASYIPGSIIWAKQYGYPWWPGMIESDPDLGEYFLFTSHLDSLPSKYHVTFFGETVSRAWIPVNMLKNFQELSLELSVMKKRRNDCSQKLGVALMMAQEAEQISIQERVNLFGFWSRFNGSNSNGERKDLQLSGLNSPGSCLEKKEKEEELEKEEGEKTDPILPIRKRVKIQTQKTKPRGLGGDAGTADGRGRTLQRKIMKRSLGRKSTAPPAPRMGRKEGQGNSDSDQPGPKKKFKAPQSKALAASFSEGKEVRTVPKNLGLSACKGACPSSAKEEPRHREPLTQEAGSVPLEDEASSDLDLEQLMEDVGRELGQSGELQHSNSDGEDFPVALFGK

`N#Cc1ccc(C(C(N)=O)N2CCC2c2ccc(Cl)cc2)cc1` (configuration not stated) was tested, and the Activity [1] was “inactive” and the Activity [2] was “inactive”.
